Measured values taken from patent US11498899B2, “Nitrone herbicides” (FMC Corporation, priority 2016, dated 2022).

Assays:
[1] = tested on: barnyardgrass (Echinochloa crus-galli); assay: Test A preemergence, visual injury rating 0-100 (0 no effect, 100 complete control); type: in vivo; conditions: for Barnyardgrass plant response rating: 0 to 100 scale (0 no effect, 100 complete control), approx. 10 days
[2] = tested on: ducksalad (Heteranthera limosa); assay: Test B flooded paddy test, visual rating 0-100; conditions: Flood, 250 g ai/ha, applied to paddy water, rated after 13 to 15 days
[3] = tested on: foxtail, giant (giant foxtail, Setaria faberii); assay: Test A preemergence, visual injury rating 0-100; type: in vivo; conditions: for Foxtail, Giant plant response rating: 0 to 100 scale (0 no effect, 100 complete control), approx. 10 days
[4] = tested on: ragweed (common ragweed, Ambrosia elatior); assay: Test A preemergence, visual injury rating 0-100; type: in vivo; conditions: for Ragweed plant response rating: 0 to 100 scale (0 no effect, 100 complete control), approx. 10 days
[5] = tested on: ryegrass, Italian (Italian ryegrass, Lolium multiflorum); assay: Test A preemergence, visual injury rating 0-100; type: in vivo; conditions: for Ryegrass, Italian plant response rating: 0 to 100 scale (0 no effect, 100 complete control), approx. 10 days
[6] = tested on: pigweed (Amaranthus retroflexus); assay: Test A preemergence, visual injury rating 0-100; type: in vivo; conditions: for Pigweed plant response rating: 0 to 100 scale (0 no effect, 100 complete control), approx. 10 days
kochia (Kochia scoparia) [7] = assay: Test A preemergence, visual injury rating 0-100; type: in vivo; conditions: for Kochia plant response rating: 0 to 100 scale (0 no effect, 100 complete control), approx. 10 days
rice (Oryza sativa) = assay: Test B flooded paddy test, visual rating 0-100 (0 no effect, 100 complete control); conditions: Flood, 250 g ai/ha, applied to paddy water, rated after 13 to 15 days
[8] = tested on: wheat (Triticum aestivum); assay: Test A postemergence, visual injury rating 0-100; type: in vivo; conditions: 0 to 100 scale
[9] = tested on: foxtail, giant (giant foxtail, Setaria faberii); assay: Test A postemergence, visual injury rating 0-100; type: in vivo; conditions: 0 to 100 scale
[10] = tested on: ragweed (common ragweed, Ambrosia elatior); assay: Test A postemergence, visual injury rating 0-100; type: in vivo; conditions: 0 to 100 scale
[11] = tested on: galium (catchweed bedstraw, Galium aparine); assay: Test A postemergence, visual injury rating 0-100; type: in vivo; conditions: 0 to 100 scale
[12] = tested on: ryegrass, Italian (Italian ryegrass, Lolium multiflorum); assay: Test A postemergence, visual injury rating 0-100; type: in vivo; conditions: 0 to 100 scale
[13] = tested on: barnyardgrass (Echinochloa crus-galli); assay: Test A postemergence, visual injury rating 0-100; type: in vivo; conditions: 0 to 100 scale
[14] = tested on: pigweed (Amaranthus retroflexus); assay: Test A postemergence, visual injury rating 0-100; type: in vivo; conditions: 0 to 100 scale
[15] = tested on: blackgrass (Alopecurus myosuroides); assay: Test A postemergence, visual injury rating 0-100; type: in vivo; conditions: 0 to 100 scale
corn (Zea mays) = assay: Test A postemergence, visual injury rating 0-100; type: in vivo; conditions: 0 to 100 scale
kochia (Kochia scoparia) [16] = assay: Test A postemergence, visual injury rating 0-100; type: in vivo; conditions: 0 to 100 scale
[17] = tested on: barnyardgrass (Echinochloa crus-galli); assay: Test B flooded paddy test, visual rating 0-100; conditions: Flood, 250 g ai/ha, applied to paddy water, rated after 13 to 15 days

Row | Structure (SMILES) | Barnyardgrass plant response rating (0 to 100 scale) ([1]; 125 g ai/ha) | Barnyardgrass plant response rating (0 to 100 scale) ([1]; 500 g ai/ha) | Ducksalad plant response rating (0 to 100 scale) [2] | Foxtail, Giant plant response rating (0 to 100 scale) ([3]; 125 g ai/ha) | Foxtail, Giant plant response rating (0 to 100 scale) ([3]; 500 g ai/ha) | Ragweed plant response rating (0 to 100 scale) ([4]; 125 g ai/ha) | Ragweed plant response rating (0 to 100 scale) ([4]; 500 g ai/ha) | Ryegrass, Italian plant response rating (0 to 100 scale) ([5]; 500 g ai/ha) | Rice plant response rating (0 to 100 scale) (rice (Oryza sativa)) | Wheat plant response rating ([8]; 125 g ai/ha) | Foxtail, Giant plant response rating ([9]; 125 g ai/ha) | Ragweed plant response rating ([10]; 125 g ai/ha) | Galium plant response rating ([11]; 125 g ai/ha) | Ryegrass, Italian plant response rating ([12]; 125 g ai/ha) | Barnyardgrass plant response rating ([13]; 125 g ai/ha) | Pigweed plant response rating ([14]; 125 g ai/ha) | Blackgrass plant response rating ([15]; 125 g ai/ha) | Corn plant response rating (corn (Zea mays); 125 g ai/ha) | Kochia plant response rating (kochia (Kochia scoparia) [16]; 125 g ai/ha) | Barnyardgrass plant response rating (0 to 100 scale) [17] | further results
1 | CC1=[N+]([O-])C(C(=O)Nc2cccc(F)c2F)C(c2ccc(OC(F)(F)F)c(F)c2)C1 (racemic) [Compound 113] | 90 | 90 | 0 | 90 | 90 | 0 | 70 | 80 | 0 | 0 | 80 | 50 | 50 | 0 | 30 | 0 | 40 | 20 | 0 | 0 | Pigweed plant response rating (0 to 100 scale) ([6]; 125 g ai/ha): 30; Pigweed plant response rating (0 to 100 scale) ([6]; 500 g ai/ha): 60; Kochia plant response rating (0 to 100 scale) (kochia (Kochia scoparia) [7]; 125 g ai/ha): 10; Kochia plant response rating (0 to 100 scale) (kochia (Kochia scoparia) [7]; 500 g ai/ha): 90; Wheat plant response rating ([8]; 500 g ai/ha): 50; Foxtail, Giant plant response rating ([9]; 500 g ai/ha): 90; Ragweed plant response rating ([10]; 500 g ai/ha): 50; Galium plant response rating ([11]; 500 g ai/ha): 70; Ryegrass, Italian plant response rating ([12]; 500 g ai/ha): 50; Barnyardgrass plant response rating ([13]; 500 g ai/ha): 80; Pigweed plant response rating ([14]; 500 g ai/ha): 20; Blackgrass plant response rating ([15]; 500 g ai/ha): 80; Corn plant response rating (corn (Zea mays); 500 g ai/ha): 80; Kochia plant response rating (kochia (Kochia scoparia) [16]; 500 g ai/ha): 40
2 | CC1=[N+]([O-])C(C(=O)Nc2cccc(F)c2F)C(c2ccc(C)c(C(F)(F)F)c2)C1 (racemic) [Compound 62] | 90 | 90 | 0 | 90 | 90 | 0 | 60 | 90 | 0 | 40 | 50 | 0 | 40 | 70 | 70 | 0 | 40 | 60 | 0 | 55 | Ryegrass, Italian plant response rating (0 to 100 scale) ([5]; 125 g ai/ha): 90; Pigweed plant response rating (0 to 100 scale) ([6]; 125 g ai/ha): 10; Pigweed plant response rating (0 to 100 scale) ([6]; 500 g ai/ha): 70; Kochia plant response rating (0 to 100 scale) (kochia (Kochia scoparia) [7]; 125 g ai/ha): 0; Kochia plant response rating (0 to 100 scale) (kochia (Kochia scoparia) [7]; 500 g ai/ha): 60; Wheat plant response rating ([8]; 500 g ai/ha): 50; Foxtail, Giant plant response rating ([9]; 500 g ai/ha): 80; Ragweed plant response rating ([10]; 500 g ai/ha): 50; Galium plant response rating ([11]; 500 g ai/ha): 50; Ryegrass, Italian plant response rating ([12]; 500 g ai/ha): 80; Barnyardgrass plant response rating ([13]; 500 g ai/ha): 80; Pigweed plant response rating ([14]; 500 g ai/ha): 10; Blackgrass plant response rating ([15]; 500 g ai/ha): 70; Corn plant response rating (corn (Zea mays); 500 g ai/ha): 80; Kochia plant response rating (kochia (Kochia scoparia) [16]; 500 g ai/ha): 20
3 | CC1=[N+]([O-])C(C(=O)Nc2cccc(F)c2F)C(c2ccc(F)cc2)C1 (racemic) [Compound 9] | 90 | – | 100 | 90 | – | 90 | – | – | 0 | 0 | 50 | 0 | 30 | 0 | 40 | 20 | 0 | 0 | 0 | 85 | Barnyardgrass plant response rating ([1]; 31 g ai/ha): 30; Foxtail, Giant plant response rating ([3]; 31 g ai/ha): 70; Ragweed plant response rating ([4]; 31 g ai/ha): 0; Ryegrass, Italian plant response rating ([5]; 31 g ai/ha): 0; Ryegrass, Italian plant response rating (0 to 100 scale) ([5]; 125 g ai/ha): 0; Pigweed plant response rating ([6]; 31 g ai/ha): 0; Pigweed plant response rating (0 to 100 scale) ([6]; 125 g ai/ha): 30; Kochia plant response rating (kochia (Kochia scoparia) [7]; 31 g ai/ha): 0; Kochia plant response rating (0 to 100 scale) (kochia (Kochia scoparia) [7]; 125 g ai/ha): 0; Wheat plant response rating ([8]; 31 g ai/ha): 0; Foxtail, Giant plant response rating ([9]; 31 g ai/ha): 20; Ragweed plant response rating ([10]; 31 g ai/ha): 0; Galium plant response rating ([11]; 31 g ai/ha): 0; Ryegrass, Italian plant response rating ([12]; 31 g ai/ha): 0; Barnyardgrass plant response rating ([13]; 31 g ai/ha): 10; Pigweed plant response rating ([14]; 31 g ai/ha): 0; Blackgrass plant response rating ([15]; 31 g ai/ha): 0; Corn plant response rating (corn (Zea mays); 31 g ai/ha): 0; Kochia plant response rating (kochia (Kochia scoparia) [16]; 31 g ai/ha): 0
4 | CC(C)C1=[N+]([O-])C(C(=O)Nc2cccc(F)c2F)C(c2ccc(C(F)(F)F)cc2)C1 (racemic) [Compound 122] | – | 0 | 0 | – | 0 | – | 0 | 0 | 0 | 0 | 0 | 0 | 0 | 0 | 0 | 0 | 0 | 0 | 0 | 0 | Barnyardgrass plant response rating ([1]; 125 g ai/ha): 0; Foxtail, Giant plant response rating ([3]; 125 g ai/ha): 0; Ragweed plant response rating ([4]; 125 g ai/ha): 0; Ryegrass, Italian plant response rating ([5]; 125 g ai/ha): 0; Pigweed plant response rating ([6]; 125 g ai/ha): 0; Pigweed plant response rating (0 to 100 scale) ([6]; 500 g ai/ha): 0; Kochia plant response rating (kochia (Kochia scoparia) [7]; 125 g ai/ha): 0; Kochia plant response rating (0 to 100 scale) (kochia (Kochia scoparia) [7]; 500 g ai/ha): 0; Wheat plant response rating ([8]; 500 g ai/ha): 0; Foxtail, Giant plant response rating ([9]; 500 g ai/ha): 0; Ragweed plant response rating ([10]; 500 g ai/ha): 0; Galium plant response rating ([11]; 500 g ai/ha): 0; Ryegrass, Italian plant response rating ([12]; 500 g ai/ha): 0; Barnyardgrass plant response rating ([13]; 500 g ai/ha): 0; Pigweed plant response rating ([14]; 500 g ai/ha): 0; Blackgrass plant response rating ([15]; 500 g ai/ha): 0; Corn plant response rating (corn (Zea mays); 500 g ai/ha): 0; Kochia plant response rating (kochia (Kochia scoparia) [16]; 500 g ai/ha): 0
5 | CC1=[N+]([O-])C(C(=O)Nc2cccc(F)c2F)C(c2ccc(F)cc2Oc2ncc(F)cn2)C1 (racemic) [Compound 68] | 20 | 100 | 0 | 50 | 100 | 0 | 70 | 90 | 0 | 30 | 0 | 0 | 30 | 20 | 0 | 0 | 70 | 20 | 0 | 0 | Ryegrass, Italian plant response rating (0 to 100 scale) ([5]; 125 g ai/ha): 20; Pigweed plant response rating (0 to 100 scale) ([6]; 125 g ai/ha): 0; Pigweed plant response rating (0 to 100 scale) ([6]; 500 g ai/ha): 0; Kochia plant response rating (0 to 100 scale) (kochia (Kochia scoparia) [7]; 125 g ai/ha): 0; Kochia plant response rating (0 to 100 scale) (kochia (Kochia scoparia) [7]; 500 g ai/ha): 30; Wheat plant response rating ([8]; 500 g ai/ha): 80; Foxtail, Giant plant response rating ([9]; 500 g ai/ha): 90; Ragweed plant response rating ([10]; 500 g ai/ha): 0; Galium plant response rating ([11]; 500 g ai/ha): 40; Ryegrass, Italian plant response rating ([12]; 500 g ai/ha): 90; Barnyardgrass plant response rating ([13]; 500 g ai/ha): 40; Pigweed plant response rating ([14]; 500 g ai/ha): 30; Blackgrass plant response rating ([15]; 500 g ai/ha): 70; Corn plant response rating (corn (Zea mays); 500 g ai/ha): 90; Kochia plant response rating (kochia (Kochia scoparia) [16]; 500 g ai/ha): 30
